Laboratory results from article PMC12040169 (PLOS Biology, 2025).

Experiment: in vitro
Details: human, hela cells, % viability
`Cc1ccc([N+](=O)[O-])cc1NS(=O)(=O)Cc1ccc(Cl)cc1` [CBK111359] showed a viability at 28.5 h, 10 µM of 71.8%.
Work on `O=C(O)c1cccc(NCN2C(=O)c3ccc([N+](=O)[O-])cc3C2=O)c1` [CBK261100] yielded a viability at 28.5 h, 10 µM of 96%.
Work on `COc1ccc(CN2CC[C@H]3NC(=O)CNC(=O)C4(C/C=C/C[C@H]3C2)CCN(C(C)=O)CC4)cc1` [CBK292013] yielded a viability at 28.5 h, 10 µM of 90.4%.
In the case of `CCCCCN1CCn2nc(CNc3cnccn3)cc2C1` [CBK306713], the viability at 28.5 h, 10 µM is reported as 77.2%.
In the case of `O=C1CC2(CCN(C(=O)C3CCCC3)CC2)Oc2ccc(Cl)cc21` [CBK283625], the viability at 28.5 h, 10 µM is reported as 90.9%.
For `Cc1cccc(-c2nnn(CC(=O)O)n2)c1` [CBK068105], the viability at 28.5 h, 10 µM was 102%.
In the case of `CN1CCN(C(c2ccccc2)C(O)C(=O)c2c[nH]c3ccccc23)CC1` (stereo not shown) [CBK267823], the viability at 28.5 h, 10 µM is reported as 103%.
`N#Cc1c(NC(=O)COc2ccc(Cl)cc2)oc(-c2ccccc2)c1-c1ccccc1` [CBK262938] gave a viability at 28.5 h, 10 µM of 91.5%.
Compound `Cc1ccc2c(N)c(C(=O)Nc3ccc(C#N)cc3)sc2n1` [CBK115348] has a viability at 28.5 h, 10 µM of 91.3%.
`Cc1cnc(CNC(=O)c2cnoc2-c2ccccc2)cn1` [CBK154926] showed a viability at 28.5 h, 10 µM of 98%.
For `CCOc1cc(C)c(Cl)cc1S(=O)(=O)NCc1ccccn1` [CBK268047], the viability at 28.5 h, 10 µM was 108%.
For `COc1ccc(-c2cccc(CN(Cc3ccc4c(c3)OCO4)CC(C)O)c2)cc1` (stereo not shown) [CBK286472], the viability at 28.5 h, 10 µM was 107%.
For `COc1ccccc1NC(=O)c1ccc(OC(C)C(=O)O)cc1` (stereo not shown) [CBK266109], the viability at 28.5 h, 10 µM was 106%.
Work on `O=C(CCOc1ccccc1)Nc1cc(N2CCNCC2)ncn1` [CBK004225T] yielded a viability at 28.5 h, 10 µM of 98.6%.
In the case of `CC(=O)N1CCCc2cc(C(O)CN3CCC(O)(c4ccc(F)cc4)CC3)ccc21` (stereo not shown) [CBK286481], the viability at 28.5 h, 10 µM is reported as 88.1%.
For `Cn1c(C2CC2)nc2c1CCN(Cc1cn3cc(Cl)ccc3n1)C2` [CBK305314], the viability at 28.5 h, 10 µM was 92.8%.
`O=C(COc1ccc(F)cc1)Nc1ccc2ncccc2c1` [CBK159816] gave a viability at 28.5 h, 10 µM of 85.7%.
For `CCN(CC)CC(O)Cn1c(-c2ccccc2Cl)nc2ccccc21` (stereo not shown) [CBK262495], the viability at 28.5 h, 10 µM was 96.3%.
In the case of `CN1CCC(C(=O)N2CCN(c3ccccc3)CC2)CC1` [CBK200211], the viability at 28.5 h, 10 µM is reported as 93.5%.
In the case of `Cc1ccc(S(=O)(=O)N2CCN(C(c3ccccc3)c3ccccc3)CC2)cc1[N+](=O)[O-]` [CBK293949], the viability at 28.5 h, 10 µM is reported as 103%.
For `COc1ccc(CSc2nc(N)c3c4c(sc3n2)CCCC4)cc1` [CBK131876], the viability at 28.5 h, 10 µM was 85.8%.
Work on `COc1ccc(C2=C3NN=C(N)N3NN2)cc1` [CBK093662] yielded a viability at 28.5 h, 10 µM of 84.8%.
Work on `CCOC(=O)c1nnc(-c2cccs2)nc1NC1CCCCC1` [CBK018110] yielded a viability at 28.5 h, 10 µM of 86.8%.
`C[C@H](Nc1ccc(C(F)(F)F)cc1[N+](=O)[O-])C(=O)NCCOc1ccccc1F` [CBK297535] showed a viability at 28.5 h, 10 µM of 106%.
With `COc1ccc2[nH]c(C(=O)O)c(CCNC(C)=O)c2c1` [CBK260943N] the viability at 28.5 h, 10 µM was 113%.
`CCCN1CCN(Cc2cccc3c2ccn3S(=O)(=O)c2cccs2)CC1` [CBK116196T] showed a viability at 28.5 h, 10 µM of 92%.
`CCOc1ccc(S(=O)(=O)Nc2ccc(C(=O)O)c(O)c2)cc1` [CBK299837] showed a viability at 28.5 h, 10 µM of 94.2%.
In the case of `COCCNc1cc(-c2ccc(Cl)cc2)ncn1` [CBK090797], the viability at 28.5 h, 10 µM is reported as 96.3%.
With `Cc1cccc(-c2noc([C@@H]3Cc4[nH]cnc4CN3C(=O)NC(C)C)n2)c1` [CBK288962] the viability at 28.5 h, 10 µM was 97.6%.
Compound `CCc1nc(COC(=O)C2CCN(C(=O)c3ccc(F)cc3)CC2)cs1` [CBK305725] has a viability at 28.5 h, 10 µM of 111%.
With `Cc1ccc(S(=O)(=O)NCC(=O)N2CCN(c3ccc(Cl)cc3)CC2)cc1` [CBK091315] the viability at 28.5 h, 10 µM was 93.3%.
For `COc1cnc(-c2ccccc2OC)c(NC(=O)Cc2ccccc2)n1` [CBK145260], the viability at 28.5 h, 10 µM was 95.8%.
For `CCOc1ccsc1C(=O)Nc1cc2ccccc2c(N2CCNCC2)n1` [CBK036341T], the viability at 28.5 h, 10 µM was 99.3%.
Work on `NC1=C2NC(c3cccc(C(=O)O)c3)=NN2N(c2ccccc2)N1` [CBK093663] yielded a viability at 28.5 h, 10 µM of 98.7%.
In the case of `Cc1ccc(C(=O)NC(=O)CSc2nc(N)n[nH]2)cc1` [CBK267523], the viability at 28.5 h, 10 µM is reported as 90.9%.
Compound `COc1ccc(OC)c(/N=C2\CC(=O)CC(C)(C)C2)c1` [CBK020541] has a viability at 28.5 h, 10 µM of 106%.
In the case of `COc1cccc(C(=O)N2CCC(NC(=O)Cc3ccc(F)cc3)CC2)c1` [CBK155027], the viability at 28.5 h, 10 µM is reported as 85%.
`CN1CCC2(CC1)CC(NC(=O)C1CCCCC1)c1ccccc1O2` (stereo not shown) [CBK282635] showed a viability at 28.5 h, 10 µM of 91.6%.
In the case of `Cc1cc(CC(=O)NCCCn2ccnc2C(C)C)on1` [CBK307270], the viability at 28.5 h, 10 µM is reported as 99.7%.
`Cn1cccc1CNCCN1CCOCC1` [CBK278187C] showed a viability at 28.5 h, 10 µM of 89.2%.
Work on `CCn1nc(C)c(-c2cncn2CCCOc2cccc(C)c2)c1C` [CBK281997] yielded a viability at 28.5 h, 10 µM of 98.2%.
`CN1CC(=O)N2CCOC(C2)c2cccc(n2)NC(=O)C/C=C/CC2(CCN(c3ncccn3)CC2)C1=O` (stereo not shown) [CBK292188] gave a viability at 28.5 h, 10 µM of 95.2%.
Compound `COc1ccc(-c2ncc(Oc3cccc(NC(C)=O)c3)nc2N)c(OC)c1` [CBK145087] has a viability at 28.5 h, 10 µM of 113%.
For `Cc1nonc1CN(C)C(=O)c1ccc2c(c1)c(C)c(C)n2C` [CBK281442], the viability at 28.5 h, 10 µM was 56.1%.
Compound `Cc1ccc(C(=O)N2CCC(c3nn(C)c4ncccc34)CC2)s1` [CBK284988] has a viability at 28.5 h, 10 µM of 86.1%.
`Fc1ccccc1CN(CCCn1ccnc1)Cc1ccco1` [CBK282952] gave a viability at 28.5 h, 10 µM of 109%.
With `CCOC(=O)CN1CCN(S(=O)(=O)c2ccc(F)c(Cl)c2)CC1` [CBK043782] the viability at 28.5 h, 10 µM was 89.3%.
In the case of `Cc1ccccc1C(=O)N1CCN(Cc2cc(=O)n3ccsc3n2)CC1` [CBK304595], the viability at 28.5 h, 10 µM is reported as 90.9%.
Work on `O=C(O)c1ccc2c(c1)C(=O)N(Cc1cccc(CN3C(=O)c4ccc(C(=O)O)cc4C3=O)c1)C2=O` [CBK265556] yielded a viability at 28.5 h, 10 µM of 113%.
With `O=C(Nc1ccc([C@@H](O)[C@H]2COCC(=O)N2Cc2ccc(F)cc2)cc1)c1cccnc1` [CBK289062] the viability at 28.5 h, 10 µM was 93.3%.
Work on `Cc1ccc(CN(CCCn2ccnc2)Cc2cnn(C)c2)s1` [CBK283113] yielded a viability at 28.5 h, 10 µM of 97.3%.
Compound `Cn1c(SCc2nnc(-c3ccccc3)o2)nnc1C(O)c1ccccc1` (stereo not shown) [CBK269640] has a viability at 28.5 h, 10 µM of 92.3%.
Work on `O=C(CN1C(=O)c2ccccc2S1(=O)=O)N(Cc1ccccc1)Cc1ccccc1` [CBK265982] yielded a viability at 28.5 h, 10 µM of 107%.
With `Nc1nonc1-n1nnc(CN2CCCCC2)c1CN1CCCCC1` [CBK270636] the viability at 28.5 h, 10 µM was 82.3%.
For `CSc1nc2sc3c(c2c(=O)n1-c1ccccc1C)CC(C)(C)OC3` [CBK091875], the viability at 28.5 h, 10 µM was 99.1%.
`COC(=O)CC[C@H]1CNC(=O)[C@@H]2[C@@H](CCN2S(C)(=O)=O)N1C` [CBK289019] showed a viability at 28.5 h, 10 µM of 112%.
Work on `O=c1[nH]c2ccccc2nc1-c1cc(Br)ccc1NCc1ccccc1` [CBK088071] yielded a viability at 28.5 h, 10 µM of 106%.
For `Cc1ccccc1CNC(=O)CCSc1ccc(Cl)cc1` [CBK264040], the viability at 28.5 h, 10 µM was 102%.
`O=C(Nc1ccc(OC(F)(F)F)cc1)c1cnc(-c2ccc(Cl)cc2)c(-c2ccco2)c1` [CBK037456] gave a viability at 28.5 h, 10 µM of 106%.
For `CC(C)NC(=O)CN1CCN(Cc2nc(-c3cccc(Cl)c3)no2)CC1` [CBK304369], the viability at 28.5 h, 10 µM was 100%.
`COc1ccc(Cc2nc(CCNC(C)=O)n(CC(F)(F)F)n2)cc1` [CBK307287] gave a viability at 28.5 h, 10 µM of 77.8%.
In the case of `Nc1nonc1-c1cccnc1` [CBK006120], the viability at 28.5 h, 10 µM is reported as 105%.
For `COCC(=O)NC(Cc1ccsc1)c1nc(C)cs1` (stereo not shown) [CBK282804], the viability at 28.5 h, 10 µM was 99.5%.
For `COc1ccc(NC(=O)C2CCCN2c2nc(O)cc(C(F)(F)F)n2)cc1` (stereo not shown) [CBK003704], the viability at 28.5 h, 10 µM was 77%.
